From patent EP0690048A1, “Ortho-amino substituted benzoylguanidines, process for their preparation, their use as medicine or diagnostic and medicines containing them” (HOECHST AKTIENGESELLSCHAFT, priority 1994, dated 1996)
Counter-ions that a name gives are not always drawn.

Molecular target: T1, Na⁺/H⁺-Exchangers von Kaninchenerythrocyten (Oryctolagus cuniculus, UniProt P23791)
T1 construct: den Na⁺-Influx in die Erythrocyten via Na⁺/H⁺-Austausch flammenphotometrisch bestimmen zu können; endogenous in cells; host or cells: erythrocytes in blood from the ear arteries of cholesterol-fed White New Zealand rabbits
Experiment: Inhibition of the Na+/H+ exchanger of rabbit erythrocytes (amiloride-sensitive sodium influx, flame photometry)
Type: cell-based, Kaninchen
Conditions: Inhibition des Na⁺/H⁺-Exchangers, hyperosmolares Salz-Sucrose-Medium, pH 7,4, 37°C, read-out: IC₅₀
Description: Inhibition des Na⁺/H⁺-Exchangers von Kaninchenerythrocyten
Weiße Neuseeland-Kaninchen (Ivanovas) erhielten eine Standard-Diät mit 2% Cholesterin für sechs Wochen, um den Na⁺/H⁺-Austausch zu aktivieren und so den Na⁺-Influx in die Erythrocyten via Na⁺/H⁺-Austausch flammenphotometrisch bestimmen zu können. Das Blut wurde den Ohrarterien entnommen und durch 25 IE Kalium-Heparin ungerinnbar gemacht. Ein Teil jeder Probe wurde zur Doppelbestimmung des Hämatokrits durch Zentrifugieren benutzt. Aliquots von jeweils 100 µl dienten zur Messung des Na⁺-Ausgangsgehalts der Erythrocyten.
Um den Amilorid-sensitiven Natrium-Influx zu bestimmen, wurden 100 µl jeder Blutprobe in jeweils 5 ml eines hyperosmolaren Salz-Sucrose-Mediums (mmol/l: 140 NaCl, 3 KCl, 150 Sucrose, 0,1 Ouabain, 20 Tris-hydroxymethylaminomethan) bei pH 7,4 und 37°C inkubiert. Die Erythrozyten wurden danach dreimal mit eiskalter MgCl₂-Ouabain-Lösung (mmol/l: 112 MgCl₂, 0,1 Ouabain) gewaschen und in 2,0 ml destilliertem Wasser hämolysiert. Der intrazelluläre Natriumgehalt wurde flammenphotometrisch bestimmt.
Der Na⁺-Nettoinflux wurde aus der Differenz zwischen Natrium-Ausgangswerten und dem Natriumgehalt der Erythrocyten nach Inkubation errechnet. Der Amilorid-hemmbare Natrium-Influx ergab sich aus der Differenz des Natriumgehalts der Erythrocyten nach Inkubation mit und ohne Amilorid 3 x 10⁻⁴ mol/l. Auf diese Weise wurde auch bei den erfindungsgemäßen Verbindungen verfahren.

T1 sequence (P23791 whole entry): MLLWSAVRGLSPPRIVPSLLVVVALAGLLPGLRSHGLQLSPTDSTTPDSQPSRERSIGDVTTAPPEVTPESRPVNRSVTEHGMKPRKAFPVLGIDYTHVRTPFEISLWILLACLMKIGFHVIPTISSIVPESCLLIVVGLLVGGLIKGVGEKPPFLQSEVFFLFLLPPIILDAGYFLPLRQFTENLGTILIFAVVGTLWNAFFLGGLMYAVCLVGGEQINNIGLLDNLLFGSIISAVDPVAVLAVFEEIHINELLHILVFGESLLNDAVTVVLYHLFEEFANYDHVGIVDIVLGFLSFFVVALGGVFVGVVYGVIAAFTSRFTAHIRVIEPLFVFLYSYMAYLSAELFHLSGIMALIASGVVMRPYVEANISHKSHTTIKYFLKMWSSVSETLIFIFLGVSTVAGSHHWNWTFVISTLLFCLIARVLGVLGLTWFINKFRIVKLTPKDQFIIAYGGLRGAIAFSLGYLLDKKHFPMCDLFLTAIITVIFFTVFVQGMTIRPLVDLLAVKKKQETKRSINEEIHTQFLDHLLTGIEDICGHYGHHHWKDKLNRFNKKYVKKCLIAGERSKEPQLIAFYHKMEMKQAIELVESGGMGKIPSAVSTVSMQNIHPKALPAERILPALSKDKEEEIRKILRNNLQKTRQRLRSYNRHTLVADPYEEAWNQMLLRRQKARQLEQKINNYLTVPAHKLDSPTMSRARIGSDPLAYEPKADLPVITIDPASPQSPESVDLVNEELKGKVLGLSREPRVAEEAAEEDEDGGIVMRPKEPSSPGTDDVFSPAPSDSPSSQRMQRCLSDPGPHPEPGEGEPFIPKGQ

First: NC(N)=NC(=O)c1cc(S(N)(=O)=O)c(Cl)cc1N [Beispiel 1, 2-Amino-4-chloro-5-sulfamoyl-benzoylguanidin-dihydrochlorid]
Second: NC(N)=NC(=O)c1cc(Br)c(Br)cc1N [Beispiel 11, 2-Amino-4,5-dibromo-benzoylguanidin]
The IC50 of the first is higher: 2 to 3 µM for the first, 0.1 µM for the second.

NC(N)=NC(=O)c1cc(Cl)ccc1N [Beispiel 9, 2-Amino-5-chloro-benzoylguanidin-dihydrochlorid] and CN(C)c1ccc(Cl)cc1C(=O)N=C(N)N [Beispiel 12, 2-Dimethylamino-5-chloro-benzoylguanidin-dihydrochlorid] fall in the same range of IC50: 1 to 2 µM for the first, 1 to 2 µM for the second.
